From patent US20170368082A1, “FORMULATIONS OF BRINCIDOFOVIR” (priority 2016, published 2017)

Key:
Type in all cases: physicochemical
[1] = Stability study I: physical degradation and benchmark stability study
Protocol: Testing of the chemical degradation was performed in an accelerated stability study setup applying heat as an accelerator/stressor. An Arrhenius analysis was carried out providing an API half-life and a degradation rate at lower temperatures. Physical stability was evaluated at the desired storage temperature (2-8° C.); a benchmark/reference condition was likewise included in the study. The setup of the study is specified below:
Physical degradation and benchmark stability study: 2-8° C., 25° C.
Physical degradation and benchmark stability study: initial, 14 and 28 days,
appearance, pH, c(BCV) recovery (HPLC), purity (HPLC), and liquid particle counting (physical degradation and benchmark stability study),
The results of the physical/benchmark stability for both tested formulations are summarized in Table 11 and Table 12, respectively. The purities of the formulations at different temperatures were determined by comparing chromatograms obtained at different temperatures and time points during the study.

[2] = Stability and confirmation analysis of stock and dose formulations
Protocol: Brincidofovir injectable liquid stock formulation was prepared to 15 mg/mL brincidofovir, compounded from stock solutions inclusive of three (3) steps: (1) 2× sodium phosphate buffer solution (400 mM, pH=8.0) was prepared; (2) 1.0 N sodium hydroxide solution was purchased; brincidofovir injectable liquid stock formulation (15 mg/mL brincidofovir, 200 mM sodium phosphate, pH=8.0) from solid brincidofovir, 1.0 N sodium hydroxide solution, 2× sodium phosphate buffer solution and WFI (water for injection) was prepared.
The brincidofovir injectable liquid stock formulation is stable for 28 days under refrigerated conditions (2 to 8° C.). Brincidofovir injectable liquid stock formulation was diluted with 5% dextrose to yield the desired dose concentration.
The brincidofovir stock solution of 15.0 mg/mL was stable for 24 hours when stored at room temperature (nominally 20° C.) and for 8, 14 and 28 days when stored at 2 to 8° C.
Two samples (5 mL each) were taken on the day of preparation from the middle region of each dosing formulation (including control) prepared for each week. One sample was analyzed, in duplicate, for dose confirmation analysis and one sample was retained refrigerated (2 to 8° C.) (Due to initial results outside the study acceptance plan criteria (±10% of nominal), the Group 2 retained samples were re-analyzed for Weeks 1 and 2).
Analysis of preliminary mixes confirmed that the test item was stable in the vehicle for at least 24 hours at room temperature (nominally 20° C.) and for at least 8 days at 2 to 8° C. (under storage conditions used in this study). Analyses conducted during the treatment period confirmed that with the exception of the Day 1, 1 mg/mL (Group 2) formulation, dose solutions of appropriate concentration were administered. The Day 1, 1 mg/mL dose solution was 86.7% of nominal. Without wishing to be bound by theory, it was concluded that due to interactions at the meniscus, the volume collected for dose formulation analysis may have lowered the analysis results. The volume collected for analysis was increased for subsequent weekly preparations and confirmed to be of appropriate concentration.

[3] = pH stability of brincidofovir stock solutions (50 μg/mL, 50 mM phosphate pH 6.0-8.0, 20% methanol)
Protocol: Brincidofovir sample stock solutions (50 μg/mL) were prepared in 50 mM phosphate buffer at pH 6.0-8.0 containing 20% methanol. The samples were aliquoted and stored at two temperatures (T=2-8° C. and T=40° C.), and monitored for pH and recovery of brincidofovir at multiple time points over the course of two weeks. Under both conditions, the samples maintained the pH level throughout the time course of the experiment.
The decrease may be related to the observed precipitation. Variation for pH 7.0 is observed for t>8 days. One impurity (RT=4.7 min) was detected that exceeded the set total peak area threshold that was applied for peak integration. The percent of the total peak area was below 0.4% for samples at pH 6 and 6.5, and below 0.1% for samples at higher pH.
For the samples at lower pH, a peak associated with the deamination product of brincidofovir, was observed, encompassing an area % of 1.91 at pH 6.0, and 0.58 at pH 6.5. The degradants peak is not observed at neutral pH and above.

CCCCCCCCCCCCCCCCOCCCOP(=O)(O)CO[C@H](CO)Cn1ccc(N)nc1=O [Brincidofovir]
Degradation over one month ([1]; 2-8 °C): 6% | Degradation over one month ([1]; 25 °C): 8% | Purity of brincidofovir ([1]; over one month): 99% | Stable for (refrigerated) ([2]; 0.05 mg/mL and 2.0 mg/mL, 2 to 8 °C): at least 8 days | Stable for (room temperature) ([2]; 0.05 mg/mL and 2.0 mg/mL, room temperature): at least 24 hours | ANALYTICAL CONCENTRATION (% of Nominal) ([2]; dose formulation Day 1, Group 2, nominal 1 (ppm) OR (mg/mL)): 86.7 % of Nominal | ANALYTICAL CONCENTRATION (% of Nominal) ([2]; dose formulation Day 1, Group 2 Back-up, nominal 1 (ppm) OR (mg/mL)): 76.9 % of Nominal | ANALYTICAL CONCENTRATION (% of Nominal) ([2]; dose formulation Day 1, Group 2 Repeat Preparation, nominal 1 (ppm) OR (mg/mL)): 75.5 % of Nominal | ANALYTICAL CONCENTRATION (% of Nominal) ([2]; dose formulation Day 1, Group 3, nominal 4 (ppm) OR (mg/mL)): 95.7 % of Nominal | ANALYTICAL CONCENTRATION (% of Nominal) ([2]; dose formulation Day 1, Group 4, nominal 15 (ppm) OR (mg/mL)): 100.7 % of Nominal | ANALYTICAL CONCENTRATION (% of Nominal) ([2]; dose formulation Week 2, Group 2, nominal 1 (ppm) OR (mg/mL)): 90.1 % of Nominal | ANALYTICAL CONCENTRATION (% of Nominal) ([2]; dose formulation Week 2, Group 2 Back-up, nominal 1 (ppm) OR (mg/mL)): 86.8 % of Nominal | ANALYTICAL CONCENTRATION (% of Nominal) ([2]; dose formulation Week 2, Group 3, nominal 4 (ppm) OR (mg/mL)): 95.4 % of Nominal | ANALYTICAL CONCENTRATION (% of Nominal) ([2]; dose formulation Week 2, Group 4, nominal 15 (ppm) OR (mg/mL)): 102.9 % of Nominal | ANALYTICAL CONCENTRATION (% of Nominal) ([2]; dose formulation Week 3, Group 2, nominal 1 (ppm) OR (mg/mL)): 93.2 % of Nominal | ANALYTICAL CONCENTRATION (% of Nominal) ([2]; dose formulation Week 3, Group 3, nominal 4 (ppm) OR (mg/mL)): 94.8 % of Nominal | ANALYTICAL CONCENTRATION (% of Nominal) ([2]; dose formulation Week 3, Group 4, nominal 15 (ppm) OR (mg/mL)): 100.2 % of Nominal | ANALYTICAL CONCENTRATION (% of Nominal) ([2]; dose formulation Week 4, Group 2, nominal 1 (ppm) OR (mg/mL)): 92.8 % of Nominal | ANALYTICAL CONCENTRATION (% of Nominal) ([2]; dose formulation Week 4, Group 3, nominal 4 (ppm) OR (mg/mL)): 96.9 % of Nominal | ANALYTICAL CONCENTRATION (% of Nominal) ([2]; dose formulation Week 4, Group 4, nominal 15 (ppm) OR (mg/mL)): 101.0 % of Nominal | ANALYTICAL CONCENTRATION (% of Nominal) ([2]; dose formulation Week 5, Group 2, nominal 1 (ppm) OR (mg/mL)): 94.9 % of Nominal | ANALYTICAL CONCENTRATION (% of Nominal) ([2]; dose formulation Week 5, Group 3, nominal 4 (ppm) OR (mg/mL)): 97.7 % of Nominal | ANALYTICAL CONCENTRATION (% of Nominal) ([2]; dose formulation Week 5, Group 4, nominal 15 (ppm) OR (mg/mL)): 101.1 % of Nominal | Impurity (RT=4.7 min), percent of total peak area ([3]; 2-8 °C, higher pH): below 0.1% | Time at which precipitation was observed ([3]; 2-8 °C, pH 6.0): 2 days | Impurity (RT=4.7 min), percent of total peak area ([3]; 2-8 °C, pH 6 and 6.5): below 0.4% | Time at which precipitation was observed ([3]; 2-8 °C, pH 6.5): 2 days | Time at which precipitation was observed ([3]; 2-8 °C, pH 7.0): 4 days | Appearance ([3]; 2-8 °C, pH 7.5 and pH 8.0, two weeks): no observable change in appearance | Appearance ([3]; 40 °C, any pH): no physical change in appearance | Deamination product peak area % ([3]; 40 °C, pH 6.0): 1.91% | Deamination product peak area % ([3]; 40 °C, pH 6.5): 0.58%
